What was measured:
HCT-116 [1] = assay: Induction of apoptosis in human HCT-116 cells assessed as early apoptotic cells at IC50 incubated for 48 hrs by annexin-V FITC and propidium iodide staining based flow cytometry analysis (reference value: 1.67 %); assay type: functional
ACHN = assay: Antiproliferative activity against human ACHN cells assessed as inhibition of cell growth at 10 uM measured after 48 hrs by SRB assay relative to control; assay type: functional
HCT-116 [2] = assay: Cell cycle arrest in human HCT-116 cells assessed as accumulation in sub-G phase at IC50 concentration incubated for 48 hrs by propidium iodide staining based flow cytometry analysis (reference value: 2.4 %); assay type: functional
WI-38 [3] = assay: Cell cycle arrest in human WI-38 cells assessed as accumulation in S phase phase at IC50 concentration incubated for 48 hrs by propidium iodide staining based flow cytometry analysis (reference value: 33.8 %); conditions: wi-38, 48 h
T47D = assay: Antiproliferative activity against human T47D cells assessed as inhibition of cell growth measured after 48 hrs by SRB assay; assay type: functional
HCT-116 [4] = assay: Antiproliferative activity against human HCT-116 cells assessed as inhibition of cell growth at 10 uM measured after 48 hrs by SRB assay relative to control; assay type: functional
HCT-116 [5] = assay: Induction of apoptosis in human HCT-116 cells assessed as necrotic cells at IC50 incubated for 48 hrs by annexin-V FITC and propidium iodide staining based flow cytometry analysis (reference value: 0.51 %); assay type: functional
MCF7 = assay: Antiproliferative activity against human MCF7 cells assessed as inhibition of cell growth measured after 48 hrs by SRB assay; assay type: functional
NCI-H23 = assay: Antiproliferative activity against human NCI-H23 cells assessed as inhibition of cell growth measured after 48 hrs by SRB assay; assay type: functional
HL-60(TB) = assay: Antiproliferative activity against human HL-60(TB) cells assessed as inhibition of cell growth measured after 48 hrs by SRB assay; assay type: functional
HCT-15 = assay: Antiproliferative activity against human HCT-15 cells assessed as inhibition of cell growth measured after 48 hrs by SRB assay; assay type: functional
[6] = Selectivity index, ratio of IC50 for human WI-38 cells to IC50 for human HCT116 cells after 48 hrs by MTT assay; assay type: toxicity; conditions: WI-38 cells versus HCT116 cells, read-out: Ratio IC50
HCT-116 [7] = assay: Cell cycle arrest in human HCT-116 cells assessed as accumulation in G2/M phase phase at IC50 concentration incubated for 48 hrs by propidium iodide staining based flow cytometry analysis (reference value: 13.75 %); assay type: functional
SNB-19 = assay: Antiproliferative activity against human SNB-19 cells assessed as inhibition of cell growth measured after 48 hrs by SRB assay; assay type: functional
SF-539 = assay: Antiproliferative activity against human SF-539 cells assessed as inhibition of cell growth measured after 48 hrs by SRB assay; assay type: functional
WI-38 [8] = assay: Induction of apoptosis in human WI-38 cells assessed as early apoptotic cells at IC50 incubated for 48 hrs by annexin-V FITC and propidium iodide staining based flow cytometry analysis (reference value: 0.39 %); assay type: cell-based; conditions: wi-38, 48 h
HCC 2998 = assay: Antiproliferative activity against human HCC 2998 cells assessed as inhibition of cell growth measured after 48 hrs by SRB assay; assay type: functional
DU-145 = assay: Antiproliferative activity against human DU-145 cells assessed as inhibition of cell growth at 10 uM measured after 48 hrs by SRB assay relative to control; assay type: functional
[9] = read-out: LC50 (the source's name)

`COc1ccc(-n2c(=S)sc3c(Cl)nc(C)nc32)c(OC)c1` gave an Activity (HCT-116 [1]) of 5.38%, an inhibition at 10 µM (ACHN) greater than 50% and an Activity (HCT-116 [2]) of 17.67%. For the same compound, the Activity (WI-38 [3]) was 26.39%, the GI50 (T47D) was 6.46 µM and the TGI (T47D) was 21.9 µM. It also gave a CC50 (T47D; [9]) of 56.2 µM, an inhibition at 10 µM (HCT-116 [4]) greater than 50% and an Activity (HCT-116 [5]) of 3.31%. For the same compound, the GI50 (MCF7) was 3.63 µM, the TGI (MCF7) was 15.5 µM and the CC50 (MCF7; [9]) was 87.1 µM. For the same compound, the GI50 (NCI-H23) was 2.45 µM, the TGI (NCI-H23) was 5.89 µM and the CC50 (NCI-H23; [9]) was 57.5 µM. For the same compound, the GI50 (HL-60(TB)) was 1.41 µM, the TGI (HL-60(TB)) was 5.89 µM and the CC50 (HL-60(TB); [9]) was greater than 100 µM. It also gave a GI50 (HCT-15) of 1.95 µM, a TGI (HCT-15) of 5.37 µM and a CC50 (HCT-15; [9]) of 41.7 µM. The selectivity ratio at 48 h [6] was 4, the Activity (HCT-116 [7]) was 29.82% and the GI50 (SNB-19) was 2.4 µM. For the same compound, the TGI (SNB-19) was 5.37 µM, the CC50 (SNB-19; [9]) was 17 µM and the GI50 (SF-539) was 2.09 µM. The TGI (SF-539) was 4.57 µM, the CC50 (SF-539; [9]) was 10 µM and the Activity (WI-38 [8]) was 3.59%. For the same compound, the GI50 (HCC 2998) was 16.2 µM, the TGI (HCC 2998) was 30.9 µM and the CC50 (HCC 2998; [9]) was 58.9 µM. It also gave an inhibition at 10 µM (DU-145) greater than 50%.

Source: ChEMBL document CHEMBL4725331, “An investigative study of antitumor properties of a novel thiazolo[4,5-d]pyrimidine small molecule revealing superior antitumor activity with CDK1 selectivity and potent pro-apoptotic properties” (Bioorg Med Chem, 2020)
